Type in all cases: biochemical
Experiment [1] has as its target T1, recombinant human PAI-1 (Homo sapiens, UniProt P05121).
T1 construct: purchased Molecular Innovations, Inc
Description: Test Example 2: human PAI-1 inhibitory activity (tPA fluorogenic substrate assay, pH7.4 HEPES buffer). The following applies: for IC50: pH7.4 HEPES buffer, obtained from Table 5 results; for inhibition at 3 µM: pH 7.4, read-out: Inhibition Rate of Human PAI-1 Activity (%). On the procedure:
(§1) Except using the pH7.4 HEPES buffer instead of pH7.5 Tris buffer, and the change of incubation time from 15 minutes to 10 minutes of the mixed solution added by two-chain tPA solution, tests were carried out similarly to the Test Example 1.
<Compotion of pH7.4 HEPES Buffer>
0.1% Polyethylene glycol 8,000 (Hampton Research Corporation)
2 mM Dimethyldecylphoshine oxide [Apo-10] (Fluka Corporation)

Experiment [2] deals with T1, recombinant human PAI-1. Put plainly: Test Example 4: human PAI-1 inhibitory activity (amount of PAI-1 bound to plate-coated tPA, ELISA). To be noted: PAI-1 50 ng/ml bound to coated tPA, read-out: Inhibition Rate of Human PAI-1 Activity (%); for inhibition at 0.1 µM: compound 0.1 μM; for inhibition at 0.3 µM: compound 0.3 μM. How it is done: 100 μl of tPA solution where one-chain recombinant tPA (hereinafter refereed to as tPA; American diagnostica, inc.) diluted with Buffer A to achieve a concentration of 10 μg/ml was added to each well of 96-well plate (Nunc Maxisorp), incubated for one night at […] to coated with tPA. Then, after suction of tPA solution from the 96-well plate, rinsed successively with Buffer A and Buffer B.
To Buffer B, solutions of the present application compound dissolved with DMSO (final DMSO concentration: 0.2%) and recombinant human PAI-1 (Molecular Innovations, Inc.) were added and blended so that the final concentrations would be 0.1 to 3.0 μM and 50 ng/ml respectively, and were incubated for 15 minutes on ice. These mixed solutions were added to rinsed 96-well plates at 100 μl/well, and incubated for 60 minutes at room temperature. To prepare calibration curve, PAI-1 solutions without the present application compound (solutions where the final concentrations being 100, 50, 25, 12.5, 6.25, 3.13, 1.56 ng/ml PAI-1) were added at 100 μl/well, and were incubated for 60 minutes at room temperature, as standard.
After incubation, the reaction mixture was suction removed, and rinsed each well with Wash Buffer. Next, anti-human PAI-1 monoclonal antibody (PROGEN Inc.) diluted with Buffer C to be 3.0 μg/ml was added to the 96-well plate at 100 μl/well, and incubated for 1 hour at room temperature. After rinsing each well with Wash Buffer, alkaline phosphatase-labeled goat anti-mouse IgG (H+L) (Jackson ImmunoResearch, Inc.) diluted with Buffer D to be 0.12 μg/ml was added at 100 μl/well, and incubated for 1 hour at room temperature. After rinsing each well with Wash Buffer, 1.0 mg/ml p-Nitrophenyl Phosphate (SIGMA) was added to the 96-well plate at 100 μl/well to start the reaction. After 30 to 60 minutes, 25 μl of 0.5 N NaOH was added to stop the reaction, and the absorbance was measured at 405 nm using a multiplate reader (GENios; TECAN G.M.B.H.).
Based on the calibration curve prepared from the standard wells, amounts of PAI-1 bound to tPA in the wells treated with the present application compound were calculated, and the PAI-1 inhibition rates by the present application compounds were obtained by the following equation. [PAI-1 Inhibition Rate (%)]=[1-(amount of PAI-1 bound to tPA on the well treated with the present application compound)/(amount of PAI-1 bound to tPA on the well treated with PAI-1 solution without present application compound (solution with the final concentration of 50 ng/ml PAI-1)]×100 <Composition of Buffer A> 0.1 M Tris-HCl-150 150 mM NaCl pH 7.7 <Composition of Buffer B> 50 mM sodium phosphate 0.1 M NaCl 1 mM EDTA pH 6.6 <Composition of Buffer C> 50 mM sodium phosphate 100 mM NaCl pH 7.4 <Composition of Buffer D> 0.01 M Tris-HCl 0.25 M NaCl pH 8.0 <Composition of Wash Buffer> 0.05% Tween 20 0.1% BSA in Buffer A <Composition of p-Nitrophenyl Phosphate Solution> 1 M Diethanolamine 0.5 mM MgCl2 p-Nitrophenyl phosphate pH 9.8

For another experiment, the target named is T2, recombinant rat PAI-1 (Rattus norvegicus, UniProt P20961).
T2 construct: purchased Molecular Innovations, Inc
T2 sequence (P20961 24-402): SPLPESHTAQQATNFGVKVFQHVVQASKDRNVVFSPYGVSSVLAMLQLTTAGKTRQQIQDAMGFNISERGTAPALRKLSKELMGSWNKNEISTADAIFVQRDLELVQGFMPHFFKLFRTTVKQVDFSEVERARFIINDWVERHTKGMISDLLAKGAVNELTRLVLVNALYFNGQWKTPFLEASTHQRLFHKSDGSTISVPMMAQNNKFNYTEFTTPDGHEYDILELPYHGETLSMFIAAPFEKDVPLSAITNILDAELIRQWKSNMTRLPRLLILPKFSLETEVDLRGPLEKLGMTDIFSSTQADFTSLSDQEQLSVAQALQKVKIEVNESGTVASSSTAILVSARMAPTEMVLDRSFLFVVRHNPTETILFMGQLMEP
Put plainly: Test Example 3: rat PAI-1 inhibitory activity (tPA fluorogenic substrate assay, pH7.4 HEPES buffer). The following applies: for IC50: pH7.4 HEPES buffer, obtained from Table 7 results; for inhibition at 10 µM / inhibition at 3 µM: pH 7.4, read-out: Inhibition Rate of Rat PAI-1 Activity (%). How it is done: as §1

T1 sequence (P05121 24-402): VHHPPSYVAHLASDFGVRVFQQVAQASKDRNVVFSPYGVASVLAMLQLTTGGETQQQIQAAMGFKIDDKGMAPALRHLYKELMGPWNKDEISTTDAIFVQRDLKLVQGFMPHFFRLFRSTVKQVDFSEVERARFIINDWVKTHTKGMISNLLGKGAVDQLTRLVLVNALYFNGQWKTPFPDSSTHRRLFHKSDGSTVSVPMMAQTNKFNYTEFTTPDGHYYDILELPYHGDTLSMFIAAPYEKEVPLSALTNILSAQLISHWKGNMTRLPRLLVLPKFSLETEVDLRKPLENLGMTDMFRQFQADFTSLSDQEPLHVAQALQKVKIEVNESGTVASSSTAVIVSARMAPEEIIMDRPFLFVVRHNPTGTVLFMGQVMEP

What is called IC50 is the concentration that gives 50% inhibition. The inhibition is how much of the control response was suppressed. As to `CC(C)(C)c1ccc(CN(C(=O)C(=O)O)c2ccc(-c3ccc(OC(F)(F)F)cc3)cc2)cc1` [compound 8, N-[4-(tert-butyl)benzyl]-N-[4′-(trifluoromethoxy)biphenyl-4-yl]oxamic Acid], the IC50 at recombinant human PAI-1 [1] amounted to 1.63 µM; at recombinant rat PAI-1 it was 3.13 µM. In addition, the inhibition at 0.1 µM at recombinant human PAI-1 [2] amounted to 0%.
In the case of `CC(C)(C)c1ccc(CN(C(=O)C(=O)O)c2cccc(-c3ccc(OC(F)(F)F)cc3)c2)cc1` [compound 9, N-[4-(tert-butyl)benzyl]-N-[4′-(trifluoromethoxy)biphenyl-3-yl]oxamic Acid], the concentration for half-maximal inhibition (IC50) on recombinant human PAI-1 [1] came to 1.71 µM; at recombinant rat PAI-1, 2.76 µM. Also, the inhibition at 0.1 µM on recombinant human PAI-1 [2] is 0%. Also, the inhibition at 10 µM at recombinant rat PAI-1 was above 99%.
Turning to `CC(C)(C)c1ccc(CN(C(=O)C(=O)O)c2cc(-c3ccc(OC(F)(F)F)cc3)cc(C(F)(F)F)c2)cc1` [compound 18, N-[4-(tert-butyl)benzyl]-N-[4′-(trifluoromethoxy)-5-(trifluoromethyl)biphenyl-3-yl]oxamic Acid], the IC50 on recombinant human PAI-1 [1] worked out at 1.25 µM; on recombinant rat PAI-1, 1.61 µM. Moreover, the inhibition at 0.1 µM at recombinant human PAI-1 [2] turned out to be 0%.
On to `CC(C)(C)c1ccc(CN(C(=O)C(=O)O)c2ccc(-c3ccc(OC(F)(F)F)cc3)cc2Cl)cc1` [compound 26, N-[4-(tert-butyl)benzyl]-N-[3-chloro-4′-(trifluoromethoxy)biphenyl-4-yl]oxamic Acid], for which the IC50 stood at 1.17 µM at recombinant human PAI-1 [1] and 2.16 µM on recombinant rat PAI-1.
On to `CC(C)(C)c1ccc(CN(C(=O)C(=O)O)c2cc(C(F)(F)F)ccc2-c2ccc(OC(F)(F)F)cc2)cc1` [compound 48, N-[4-(tert-butyl)benzyl]-N-[4′-(trifluoromethoxy)-4-(trifluoromethyl)biphenyl-2-yl]oxamic Acid], for which the IC50 at recombinant human PAI-1 [1] worked out at 1.14 µM. Besides, at recombinant rat PAI-1, the inhibition at 3 µM turned out to be 61% and the IC50 is 2.45 µM.
`CC(C)(C)c1ccc(CN(C(=O)C(=O)O)c2cccc(Oc3ccc(OC(F)(F)F)cc3)c2)cc1` [compound 52, N-[4-(tert-butyl)benzyl]-N-{3-[4-(trifluoromethoxy)phenoxy]phenyl}oxamic Acid]: the IC50 at recombinant human PAI-1 [1] turned out to be 1.84 µM; at recombinant rat PAI-1 it was 3.04 µM.
`CC(C)(C)c1ccc(CN(C(=O)C(=O)O)c2ccc(Oc3ccc(OC(F)(F)F)cc3)cc2C(F)(F)F)cc1` [compound 54, N-[4-(tert-butyl)benzyl]-N-{4-[4-(trifluoromethoxy)phenoxy]-2-(trifluoromethyl)phenyl}oxamic Acid]: the half-maximal inhibitory concentration (IC50) was 1.32 µM at recombinant human PAI-1 [1] and 2.04 µM on recombinant rat PAI-1. At recombinant human PAI-1 [2], the inhibition at 0.1 µM amounted to 0%. In addition, the inhibition at 0.3 µM on recombinant human PAI-1 [2] was determined as 0%.
`Cc1ccc(N(Cc2ccc(C(C)(C)C)cc2)C(=O)C(=O)O)cc1-c1ccc(OC(F)(F)F)cc1` [compound 56, N-[4-(tert-butyl)benzyl]-N-[2-methyl-4′-(trifluoromethoxy)biphenyl-5-yl]oxamic Acid]: at recombinant human PAI-1 [1], the 50% inhibitory concentration (IC50) is 1.4 µM. Besides, the inhibition at 0.1 µM at recombinant human PAI-1 [2] was found to be 4%. In addition, at recombinant rat PAI-1, the inhibition at 10 µM is above 99% and the IC50 amounted to 1.87 µM.
Regarding `CC(C)(C)c1ccc(COc2ccc(-c3ccc(OC(F)(F)F)cc3)cc2N(Cc2ccccc2)C(=O)C(=O)O)cc1` [compound 59, N-benzyl-N-{4-[4-(tert-butyl)benzyloxy]-4′-(trifluoromethoxy)biphenyl-3-yl}oxamic Acid], on recombinant human PAI-1 [1], the inhibition at 3 µM is above 99% and the half-maximal inhibitory concentration (IC50) was determined as 0.66 µM. In addition, at recombinant rat PAI-1, the inhibition at 3 µM was above 99%, the inhibition at 10 µM was above 99% and the concentration for half-maximal inhibition (IC50) is 1.11 µM.
`CCCOc1ccc(N(Cc2ccc(C(C)(C)C)cc2)C(=O)C(=O)O)cc1-c1ccc(OC(F)(F)F)cc1` [compound 65, N-[4-(tert-butyl)benzyl]-N-[2-propoxy-4′-(trifluoromethoxy)biphenyl-5-yl]oxamic Acid]: at recombinant human PAI-1 [1], the inhibition at 3 µM was above 99%. The IC50 at recombinant human PAI-1 [1] is 1.15 µM; at recombinant rat PAI-1 it was 1.72 µM. Further, the inhibition at 0.1 µM at recombinant human PAI-1 [2] amounted to 0%.
As for `CC(C)(C)c1ccc(CN(C(=O)C(=O)O)c2ccc(Cl)c(-c3ccc(OC(F)(F)F)cc3)c2)cc1` [compound 66, N-[4-(tert-butyl)benzyl]-N-[2-chloro-4′-(trifluoromethoxy)biphenyl-5-yl]oxamic Acid], at recombinant human PAI-1 [1], the inhibition at 3 µM was above 99% and the IC50 was 1.14 µM. Besides, the inhibition at 0.1 µM at recombinant human PAI-1 [2] came to 6%. Besides, at recombinant rat PAI-1, the half-maximal inhibitory concentration (IC50) stood at 1.55 µM.
On to `CCCOc1ccc(-c2ccc(OC(F)(F)F)cc2)cc1N(Cc1ccc(C(C)(C)C)cc1)C(=O)C(=O)O` [compound 68, N-[4-(tert-butyl)benzyl]-N-[4-propoxy-4′-(trifluoromethoxy)biphenyl-3-yl]oxamic Acid], for which the IC50 at recombinant human PAI-1 [1] was determined as 1.18 µM; at recombinant rat PAI-1, 1.79 µM. The inhibition at 10 µM at recombinant rat PAI-1 is above 99%.
As to `CCCCOc1ccc(-c2ccc(OC(F)(F)F)cc2)cc1N(Cc1ccc(C(C)(C)C)cc1)C(=O)C(=O)O` [compound 69, N-[4-(tert-butyl)benzyl]-N-[4-butoxy-4′-(trifluoromethoxy)biphenyl-3-yl]oxamic Acid], at recombinant human PAI-1 [1], the IC50 was 0.88 µM. At recombinant human PAI-1 [2], the inhibition at 0.1 µM turned out to be 0%. On recombinant rat PAI-1, the inhibition at 10 µM was above 99% and the half-inhibitory concentration (IC50) amounted to 1.28 µM.
Regarding `COc1cc(OC)c(N(Cc2ccc(C(C)(C)C)cc2)C(=O)C(=O)O)cc1-c1ccc(OC(F)(F)F)cc1` [compound 70, N-[4-(tert-butyl)benzyl]-N-[2,4-dimethoxy-4′-(trifluoromethoxy)biphenyl-5-yl]oxamic Acid], the IC50 on recombinant human PAI-1 [1] was found to be 1.32 µM. Moreover, on recombinant human PAI-1 [2], the inhibition at 0.1 µM was 0% and the inhibition at 0.3 µM was found to be 0%. On recombinant rat PAI-1, the inhibition at 10 µM is above 99% and the 50% inhibitory concentration (IC50) was determined as 2.3 µM.
In the case of `CC(C)(C)c1ccc(CN(C(=O)C(=O)O)c2ccc(Cl)cc2-c2ccc(OC(F)(F)F)cc2)cc1` [compound 72, N-[4-(tert-butyl)benzyl]-N-[5-chloro-4′-(trifluoromethoxy)biphenyl-2-yl]oxamic Acid], the inhibition at 3 µM on recombinant human PAI-1 [1] was above 99%. Also, the IC50 on recombinant human PAI-1 [1] was 1.06 µM; on recombinant rat PAI-1 it was 2.14 µM.
Take `CCCCOc1ccc(N(Cc2ccc(C(C)(C)C)cc2)C(=O)C(=O)O)cc1-c1ccc(OC(F)(F)F)cc1` [compound 73, N-[4-(tert-butyl)benzyl]-N-[2-butoxy-4′-(trifluoromethoxy)biphenyl-5-yl]oxamic Acid]: the inhibition at 3 µM on recombinant human PAI-1 [1] is above 99%. Also, the figures for the 50% inhibitory concentration (IC50) at recombinant human PAI-1 [1] and on recombinant rat PAI-1 were 1.13 µM and 1.82 µM, respectively.
With `CCCCCOc1ccc(-c2ccc(OC(F)(F)F)cc2)cc1N(Cc1ccc(C(C)(C)C)cc1)C(=O)C(=O)O` [compound 74, N-[4-(tert-butyl)benzyl]-N-[4-pentyloxy-4′-(trifluoromethoxy)biphenyl-3-yl]oxamic acid], the concentration for half-maximal inhibition (IC50) at recombinant human PAI-1 [1] is 0.82 µM. Moreover, at recombinant human PAI-1 [2], the inhibition at 0.1 µM is 0%. Besides, on recombinant rat PAI-1, the inhibition at 10 µM was above 99% and the concentration for half-maximal inhibition (IC50) was determined as 1.14 µM.

Values taken from patent US7884234B2, “N-phenyloxamide derivatives” (Institute of Medicinal Molecular Design, inc., priority 2006, dated 2011).
